Data as given in US10927086B2, “Substituted sulfoximine compounds as indoleamine 2,3-dioxygenase (IDO) inhibitors” (Merck Sharp & Dohme Corp., priority 2017, dated 2021).

Columns and labels:
IDO1 [1] = target: T1, IDO1 (Homo sapiens (Human), UniProt P14902); test: IDO1 Human Whole Blood Assay; type: cell-based; details: LPS and IFNγ, 18 h, kynurenine by LC/MS/MS
Experimental: Compounds to be tested were serially diluted in ten 3-fold steps in DMSO starting from 10 mM. 3 μL of compound dilutions or DMSO alone were then dispensed from the dilution plate into a polypropylene 96-well assay plate containing 97 μL of RPMI using an Echo 555 acoustic liquid handler (Labcyte). LPS and IFNγ was prepared in RPMI to a 10λ of final conc. (1000 ng/mL), final concentration is 100 ng/mL.
Human whole blood was drawn in sodium heparin coated tubes from healthy internal donors. Two hundred forty μL of blood was transferred to each of the wells of a v-bottom 96 well plate. Thirty μL of compound was transferred from intermediate dilution plate, and incubated for 15 min. […] from stimulants was then transferred to blood and mixed thoroughly. Plate was covered with breathable membrane and incubated at 37° C. for overnight (18 h).
On day 2 isotope labeled standard of kynurenine and tryptophan was made in water at 10× concentration and 30 μL was added to the blood at 3 μM final concentration. The assay plates were centrifuged at 300×G for 10 min with no brake to separate plasma from red blood cells. Sixty μL of plasma samples was removed without disturbing red blood cells.
Plasma was diluted with RPMI in 1:1 ratio and proteins were precipitated out with two volume of Acetonitrile. The plates was centrifuged at 4000×G for 60 min. Twenty μL of supernatant was carefully transferred to a 384 well plate contain 40 μL of 0.1% formic acid in water and analyzed by LC/MS/MS.
LC/MS/MS analyses were performed using Thermo Fisher's LX4-TSQ Quantum Ultra system. This system consists of four Agilent binary high-performance liquid chromatography (HPLC) pumps and a TSQ Quantum Ultra triple quadruple MS/MS instrument. For each sample, 5 μL were injected onto an Atlantis T3 column (2.1 mm×150 mm, 3 μm particle size) from Waters. The mobile phase gradient pumped at 0.8 mL/min was used to elute the analytes from the column at 25° C. The elution started at 0% B increasing linearly to 25% B at 6.5 min, holding at 25% for 1 min, re-equilibrating to 10 min. Mobile phase A consisted of 0.1% formic acid in water. Mobile phase B consisted of 0.1% of formic acid in acetonitrile. Data was acquired in positive mode using a HESI interface. The operational parameters for the TSQ Quantum Ultra instrument were a spray voltage of 4000 V, capillary temperature of 380° C., vaporizer temperature 400° C., shealth gas 60 arbitrary units, Aux gas 20 arbitrary units, tube lens 85 and collision gas 1.2 mTorr. SRM chromatograms of kynurenine (QI: 209.2>Q3:94.0) and internal standard (Q1: 215.3>Q3:98.2) were collected for 90 sec. The peak area was integrated by Xcalibur Quan software. The ratios between the kynurenine generated in the reaction and 2D6-Kynurenine spiked-in internal standard were used to generate percentage inhibition and IC50 values. Compounds were titrated and IC50's were calculated by 4 parameter sigmoidal curve fitting formula.
Target sequence in this assay (P14902 whole entry): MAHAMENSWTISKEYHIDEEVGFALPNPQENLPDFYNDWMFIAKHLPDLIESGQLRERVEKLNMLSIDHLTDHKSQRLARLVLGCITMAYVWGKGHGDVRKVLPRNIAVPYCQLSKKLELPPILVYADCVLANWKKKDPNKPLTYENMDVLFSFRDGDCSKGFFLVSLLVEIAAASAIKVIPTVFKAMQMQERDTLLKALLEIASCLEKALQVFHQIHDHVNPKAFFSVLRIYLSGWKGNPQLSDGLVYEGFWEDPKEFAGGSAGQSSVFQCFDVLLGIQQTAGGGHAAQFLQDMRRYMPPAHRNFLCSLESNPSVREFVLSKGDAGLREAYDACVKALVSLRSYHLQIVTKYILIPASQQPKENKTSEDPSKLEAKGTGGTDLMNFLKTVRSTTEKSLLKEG

IDO1 [2] = target: T1, IDO1; test: IDO1 Enzyme Assay; type: biochemical; details: HIS-tagged recombinant IDO1, fluorescence readout
Experimental: (§1) Compounds to be tested were serially diluted in ten 3-fold steps in DMSO starting from 10 mM DMSO stocks. Compound dilutions or DMSO alone were then dispensed from the dilution plate into a Greiner black 384-well assay plate (catalog #781086) using an Echo 555 acoustic liquid handler (Labcyte).
HIS-tagged IDO1 protein was recombinantly expressed in Escherichia coli using ZYP5052 autoinduction media supplemented with 500 μM delta aminolevulinic acid for 48 h at 16° C. IDO1 protein was purified using Ni^2+-affinity resin and size exclusion chromatography. Purified protein was then diluted in assay buffer (50 mM Tris pH 7.0, 1% glycerol, 20 μM methylene blue, 0.05% Tween-20, 20 mM sodium ascorbate, 100 units/mL catalase to obtain a final IDO1 concentration of 40 nM. IDO1 solution […] or buffer alone ([…]) were dispensed to wells of the assay plate using a BioRAPTR liquid dispenser (Beckman Coulter). Assay plates containing compound and IDO1 enzyme were incubated at RT for 30 min. Afterwards, 10 μL of 400 μM tryptophan in assay buffer were added to each well of the assay plate using a BioRAPTR liquid dispenser. Plates were incubated at RT for 60 min and reactions were quenched by addition of 10 μL of 0.5 M methyl isonipecotate in dimethyl sulfoxide. Plates were sealed and incubated at 37° C. for 4 h or 50° C. for 2 h. The plates are allowed to cool and then centrifuged for 1 min at 1000×g. The resulting fluoresence was measured in an Envision plate reader (Perkin Elmer) with a 400/25 nm excitation filter and an 510/20 nm emission filter.
Potencies were calculated by linear least squares fit to the four parameter logistic IC50 equation.
Target sequence in this assay (P14902 whole entry, species assumed): as the sequence (P14902 whole entry) above

IDO1 [3] = target: T1, IDO1; test: IDO1 Cellular Assay in Hela Cells Stimulated with IFNγ; type: cell-based; details: about 48 hours, read-out: IDO1 HELA Cell Assay, IC50
Experimental: Hela cells were cultured in complete Hela culture medium (90% EMEM, 10% heat-inactivated fetal bovine serum) and expanded to about 1×10^9 cells. The cells were then collected and frozen down at 10×10^6 cells/vial in 1 mL frozen medium (90% complete Hela culture medium, 10% DMSO)
as §1, with “stocks in Echo low volume plate(s).” for “stocks.”, “plate(s)” for “plate”, “into” for “into a”, “#781086, 50 nL/well)” for “#781086)”, “550” for “555”
Target sequence in this assay (P14902 whole entry): as above
Frozen Hela cells were thawed and transferred into Hela assay medium (99% complete Hela culture medium, 1% Pen/Strep) with 20 mL medium/vial of cells. The cells were spun down at 250 g in a table top centrifuge for 5 min and suspended in same volume of Hela assay medium. The cells were then counted and adjusted to a density of 2×10^5 cells/ml in Hela assay medium. Sterile L-tryptophan were added to the cells with final concentration of 300 uM L-tryptophan. A small aliquot (2 mL/plate) of Hela cells were set aside and were not treated with IFNγ, to serve as the Max-E control. The rest of Hela cells were added with sterile IFNγ (Cat #285-IF, R & D systems) with a final concentration of 100 ng/mL.
Hela cells with and without IFNγ were dispensed to the respective wells of 384-well assay plates containing the compounds. The plates were incubated for about 48 hours at a 37° C., 5% CO2 incubator. Afterwards, 12 μL of 0.5 M methyl isonipecotate in dimethyl sulfoxide were added into each well and the plates were sealed and incubated at 37° C. without CO2 overnight. The plates were centrifuged for 1 min at 200×g. The resulting fluorescence was measured in a Spectramax plate reader (Molecular Devices) with a 400 nm excitation filter and a 510 nm emission filter.
The fluorescence intensity of each well was corrected for the background observed in wells with non-IFNγ-treated cells and was expressed as a fraction of the intensity observed in wells of IFNγ-treated cells and DMSO only. Potencies were calculated by linear least squares fit to the four parameter logistic IC50 equation.

| SMILES | IC50 (IDO1 [1]) | IC50 (IDO1 [2]) | IC50 (IDO1 [3]) |
| --- | --- | --- | --- |
| N=S1(=O)CC(CNc2nonc2/C(=N/O)N[C@H]2Cc3ccc(F)cc32)C1 (single isomer, unassigned) [Example 5] | 412 nM | 102 nM | 168 nM |
| CS(=O)(CCNc1nonc1/C(=N/O)N[C@H]1Cc2ccc(F)cc21)=NC(N)=O (stereo partly drawn) [Example 16, 4-((2-(N-carbamoyl-S-methylsulfonimidoyl)ethyl)amino)-N-((S)-4-fluorobicyclo[4.2.0]octa-1,3,5-trien-7-yl)-N′-hydroxy-1,2,5-oxadiazole-3-carboximidamide] | 843 nM | 55.1 nM | 69.2 nM |
| CS(=O)(/C=C/Nc1nonc1/C(=N/O)N[C@H]1Cc2ccc(F)cc21)=NC#N (stereo partly drawn) [Example 15, 4-(((E)-2-(N-cyano-S-methylsulfonimidoyl)vinyl)amino)-N-((S)-4-fluorobicyclo[4.2.0]octa-1(6),2,4-trien-7-yl)-N′-hydroxy-1,2,5-oxadiazole-3-carboximidamide] | 869 nM | 165 nM | 20.1 nM |
| CS(=N)(=O)N1CC(O)(CNc2nonc2/C(=N/O)N[C@H]2Cc3ccc(F)cc32)C1 (single isomer, unassigned) [Example 36] | 1640 nM | 85.7 nM | 148 nM |
| N=S1(=O)CC(Nc2nonc2/C(=N/O)N[C@H]2Cc3ccc(F)cc32)C1 (single isomer, unassigned) [Example 4] | 1890 nM | 90.6 nM | 162 nM |
| CS(=N)(=O)N1CC(Oc2nonc2/C(=N/O)N[C@H]2Cc3ccc(F)cc32)C1 (single isomer, unassigned) [Example 41] | 224 nM | 94 nM | 117 nM |
| N=S1(=O)CC(Nc2nonc2/C(=N/O)N[C@H]2Cc3ccc(F)cc32)C1 (single isomer, unassigned) [Example 3] | 1800 nM | 120 nM | 110 nM |
| C[S@@](=N)(=O)CCNc1nonc1/C(=N/O)N[C@H]1Cc2ccc(F)cc21 [Example 2, N—((S)-4-fluorobicyclo[4.2.0]octa-1(6),2,4-trien-7-yl)-N′-hydroxy-4-((2-((R)—S-methylsulfonimidoyl)ethyl)amino)-1,2,5-oxadiazole-3-carboximidamide] | 386 nM | 88.1 nM | 60.9 nM |
| C[S@](=N)(=O)CCNc1nonc1/C(=N/O)N[C@H]1Cc2ccc(F)cc21 [Example 1, N—((S)-4-fluorobicyclo[4.2.0]octa-1(6),2,4-trien-7-yl)-N′-hydroxy-4-((2-((S)—S-methylsulfonimidoyl)ethyl)amino)-1,2,5-oxadiazole-3-carboximidamide] | 427 nM | 86 nM | 55.8 nM |
| CS(=O)(CCNc1nonc1/C(=N/O)N[C@H]1Cc2ccc(F)cc21)=NC#N (stereo partly drawn) [Example 17, 4-((2-(N-cyano-S-methylsulfonimidoyl)ethyl)amino)-N-((S)-4-fluorobicyclo[4.2.0]octa-1(6),2,4-trien-7-yl)-N′-hydroxy-1,2,5-oxadiazole-3-carboximidamide] | 173 nM | 64.7 nM | 53.7 nM |
| CS(=N)(=O)N1CCO[C@@H](CNc2nonc2/C(=N\O)N[C@@H]2Cc3ccc(F)cc32)C1 (single isomer, unassigned) [Example 63] | 1200 nM | 98 nM | 73 nM |
| N=S1(=O)CC(CNc2nonc2/C(=N/O)N[C@H]2Cc3ccc(F)cc32)C1 (single isomer, unassigned) [Example 6] | 494 nM | 51 nM | 92.1 nM |
| CS(=N)(=O)N1CC(Oc2nonc2/C(=N/O)N[C@H]2Cc3ccc(F)cc32)C1 (single isomer, unassigned) [Example 42] | – | 56.8 nM | 43.6 nM |
